From patent US11472806B2, “Substituted heterocyclic compounds as allosteric modulators of group II metabotropic glutamate receptors” (Domain Therapeutics, priority 2017, dated 2022)
Counter-ions that a name gives are not always drawn.

Target: T1, human mGluR3 (hmGluR3) (Homo sapiens, UniProt Q14832)
T1 construct: expressed in transfected cells; host or cells: HEK-293 cells, transient co-transfection by electroporation
Assay: Human mGluR3 positive allosteric modulator evaluation using Ca++ functional assay
Format: cell-based
Conditions: hmGluR3 transiently over-expressed in HEK-293 cells; cells stimulated by an EC50 glutamate concentration; intracellular Ca2+ (Fluo4AM, FLIPR Tetra)
Experimental: Example 89: Human mGluR3 Positive Allosteric Modulator Evaluation Using Ca++ Functional Assay
Compounds of the present invention were tested successively for their agonist and positive allosteric modulator activities on human mGluR3 (hmGluR3) transiently over-expressed in HEK-293 cells. Compounds exert agonist activity if they are able to activate hmGluR3 by themselves, i.e., in absence of the endogenous agonist glutamate; and they exert positive allosteric modulator activity if they increase the action of the endogenous agonist glutamate.
Cell Culture and Transfection:
HEK-293 cells were maintained in Modified Eagle's Medium supplemented with 10% Foetal Calf Serum, 1% Penicillin/Streptomycin and 1% non-essential amino acids at 37° C./5% CO2. Cells were co-transfected by electroporation with four DNA plasmids encoding hmGluR3, a chimeric G protein allowing redirection of the activation signal toward intracellular calcium pathway, and two glutamate transporters so as to decrease extracellular glutamate levels and avoid receptor desensitization (Brabet I et al., Neuropharmacology 37(8), 1043-51, 1998). After transfection, cells were seeded in 75 cm^2 culture flasks, and cultured for 24 h.
Calcium Assa EC50 determination:
Receptor activity was detected by changes in intracellular calcium measured using the fluorescent Ca^2+ sensitive dye, Fluo4AM (Molecular Probes).
The day of the assay, medium was aspirated and replaced during 3 hrs by freshly prepared buffer B (HBSS 1×, Hepes 20 mM, MgSO4-7H2O 1 mM, Na2CO3 3.3 mM, CaCl2-2H2O 1.3 mM, 0.5% BSA, Probenecid 2.5 mM). Then, cells were loaded at 37° C./5% CO2 for 1.5 hrs with buffer B containing 1 μM Fluo4AM, 0.1 mg/mL Pluronic Acid, 7 μg/mL Glutamate Pyruvate Transaminase and 2 mM sodium pyruvate. Afterwards cells were washed with buffer B. Cells were then detached from the 75 cm^2 culture flasks with Accutase® (5 min incubation at 37° C.), centrifuged (5 min at 840 rpm), resuspended in buffer B and finally seeded at a density of 30,000 cells/well in black-walled clear-bottom 384-well plates. Addition of compounds on cells and intracellular Ca^2+ measurements (excitation 485 nm, emission 525 nm) were performed by the fluorescence microplate reader FLIPR Tetra (Molecular Devices).
Agonist and positive allosteric modulator activities of compounds were consecutively evaluated on the same cells plate. Agonist activity was first tested during 10 min with the addition of compound alone on the cells. Then, the cells were stimulated by an EC50 glutamate concentration and fluorescence was recorded for additional 3 min. EC50 glutamate concentration is the concentration giving 50% of the maximal glutamate response. Agonist and/or positive allosteric modulator activity(ies) were evaluated in comparison to basal signal or signal evoked by EC50 glutamate concentration alone, respectively.
For potency determination, a dose-response test was performed using 20 concentrations of each compound of the invention. Dose-response curves were fitted using the sigmoïdal dose-response (variable slope) analysis in XLfit Scientific Curve Fitting for Excel (IDBS). EC50 of agonist/EC50 of positive allosteric modulator activity(ies) were calculated. Dose-response experiments were all performed in duplicate, two times independently.

T1 sequence (Q14832 23-879): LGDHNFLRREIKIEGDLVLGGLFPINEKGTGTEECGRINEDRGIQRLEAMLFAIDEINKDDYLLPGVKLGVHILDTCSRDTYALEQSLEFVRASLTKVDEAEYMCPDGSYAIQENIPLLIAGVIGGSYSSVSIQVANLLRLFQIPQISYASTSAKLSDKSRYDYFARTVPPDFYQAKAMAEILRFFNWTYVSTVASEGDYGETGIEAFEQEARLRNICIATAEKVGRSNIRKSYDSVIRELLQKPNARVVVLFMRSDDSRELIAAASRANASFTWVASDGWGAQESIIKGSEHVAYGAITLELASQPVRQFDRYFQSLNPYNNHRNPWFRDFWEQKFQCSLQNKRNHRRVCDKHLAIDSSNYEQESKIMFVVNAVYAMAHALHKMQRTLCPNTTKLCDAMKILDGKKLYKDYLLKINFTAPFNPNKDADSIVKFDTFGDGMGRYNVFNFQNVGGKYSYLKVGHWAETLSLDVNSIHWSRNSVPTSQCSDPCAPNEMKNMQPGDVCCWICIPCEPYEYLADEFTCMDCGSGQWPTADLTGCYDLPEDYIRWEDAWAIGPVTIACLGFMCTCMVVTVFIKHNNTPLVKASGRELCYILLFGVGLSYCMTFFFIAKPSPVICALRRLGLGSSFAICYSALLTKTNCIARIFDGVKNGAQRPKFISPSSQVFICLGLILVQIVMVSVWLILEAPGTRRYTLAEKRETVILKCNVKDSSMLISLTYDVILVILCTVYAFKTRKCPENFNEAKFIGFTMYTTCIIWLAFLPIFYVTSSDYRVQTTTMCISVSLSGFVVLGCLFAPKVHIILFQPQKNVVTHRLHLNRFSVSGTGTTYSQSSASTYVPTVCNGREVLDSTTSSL

Structure (SMILES)	EC50 [µM]
CN1Cc2ccc(-c3cccc(C#N)c3)cc2-c2cccnc2C1=O [Example 25, 3-(6-Methyl-5-oxo-6,7-dihydro-5H-4,6-diaza-dibenzo[a,c]cyclohepten-10-yl)-benzonitrile]	0.1 to 1
COc1cnc2c(c1)-c1cc(-c3cccnc3C)ccc1CN(C)C2=O [Example 48, 2-Methoxy-6-methyl-10-(2-methyl-pyridin-3-yl)-6,7-dihydro-4,6-diaza-dibenzo[a, c]cyclohepten-5-one]	0.1 to 1
Cc1ncccc1-c1cnc2c(n1)-n1cccc1C(=O)N(C)C2 [Example 7, 5-Methyl-9-(2-methyl-pyridin-3-yl)-5,6-dihydro-5,7,10,10b-tetraaza-benzo[e]azulen-4-one, dihydrochloride]	1 to 10
CN1Cc2ncc(-c3cccc(C#N)c3)cc2-n2cccc2C1=O [Example 11, 3-(5-Methyl-4-oxo-5,6-dihydro-4H-5,7,1 b-triaza-benzo[e]azulen-9-yl)-benzonitrile]	> 10
Cc1ncccc1-c1ccc2c(c1)-c1cc(F)cnc1C(=O)N(C)C2 [Example 46, 2-Fluoro-6-methyl-10-(2-methyl-pyridin-3-yl)-6,7-dihydro-4,6-diaza-dibenzo[a, c]cyclohepten-5-one]	1 to 10
CN1Cc2ncc(-c3ccc4nccn4c3)cc2-n2cccc2C1=O [Example 12, 9-Imidazo[1,2-a]pyridin-6-yl-5-methyl-5,6-dihydro-5,7,10b-triaza-benzo[e]azulen-4-one]	> 10
Cc1ncccc1-c1ccc2c(c1)-c1ccsc1C(=O)N(C)C2 [Example 55, 5-Methyl-9-(2-methyl-pyridin-3-yl)-5,6-dihydro-3-thia-5-aza-benzo[e]azulen-4-one]	0.1 to 1
Cc1ncccc1-c1ccc2c(c1)-c1cc[nH]c1C(=O)N(C)C2 [Example 59, 5-Methyl-9-(2-methyl-pyridin-3-yl)-5,6-dihydro-3H-3,5-diaza-benzo[e]azulen-4-one]	0.1 to 1
Cc1cnc2c(c1)-c1cc(-c3cccnc3C)ccc1CN(C)C2=O [Example 43, 2,6-Dimethyl-10-(2-methyl-pyridin-3-yl)-6,7-dihydro-4,6-diaza-dibenzo[a, c]cyclohepten-5-one]	1 to 10
Cc1ncccc1-c1cnc2c(c1)-n1cccc1C(=O)N(C)C2 [Example 6, 5-Methyl-9-(2-methyl-pyridin-3-yl)-5,6-dihydro-5,7,10b-triaza-benzo[e]azulen-4-one, dihydrochloride]	> 10
Cc1ncccc1-c1cc2c(cn1)C1(CC1)N(C)C(=O)c1cccn1-2 [Example 3, 2′-(2-Methyl-pyridin-3-yl)-6′-methylspiro[cyclopropane-1,5′-pyrido[3,4-f]pyrrolo[1,2-a][1,4]diazepin]-7′(6 ^1H)-one]	1 to 10
COc1ccc2c(n1)C(=O)N(C)C1(CC1)c1ccc(Cl)cc1-2 [Example 52, 10-chloro-3-methoxy-6-methylspiro[benzo[c]pyrido[3,2-e]azepine-7,1′-cyclopropan]-5(6H)-one]	0.1 to 1
Cc1ncccc1-c1ccc2c(c1)-c1ccc(-c3ccnn3C)cc1C(=O)N(C)C21CC1 [Example 23, 3-(2-Methyl-2H-pyrazol-3-yl)-10-(2-methyl-pyridin-3-yl)-6-methyl-6,7-dihydro-spiro[dibenzo[c, e]azepine-7,1′-cyclopropan]-5-one]	0.1 to 1
Cc1ccc2c(n1)C(=O)N(C)Cc1ccc(-c3cccnc3C)cc1-2 [Example 41, 3,6-Dimethyl-10-(2-methyl-pyridin-3-yl)-6,7-dihydro-4,6-diaza-dibenzo[a, c]cyclohepten-5-one]	0.1 to 1
Cc1ncccc1-c1ccc2c(c1)-c1ccc(Cl)cc1C(=O)N(C)C21CC1 [Example 22, 3-Chloro-10-(2-methyl-pyridin-3-yl)-6-methyl-6,7-dihydro-spiro[dibenzo[c, e]azepine-7,1′-cyclopropan]-5-one]	1 to 10
Cc1ncccc1-c1ccc2c(c1)-c1cccnc1C(=O)N(C)C2 [Example 26, 6-Methyl-10-(2-methyl-pyridin-3-yl)-6,7-dihydro-4,6-diaza-dibenzo[a, c]cyclohepten-5-one]	0.1 to 1
Cc1ncccc1-c1ccc2c(c1)-n1cccc1C(=O)N(C)C21CCC1 [Example 17, 9-(2-Methyl-pyridin-3-yl)-5-methyl-5,6-dihydro-spiro[benzo[f]pyrrolo[, 2-a][1,4]diazepine-6,1′-cyclobutan]-4-one]	0.1 to 1

Results, then the molecule that gave them:

EC50 [µM]	Structure (SMILES)
0.1 to 1	COc1ccc2c(n1)C(=O)N(C)Cc1ccc(-c3ccc(F)cn3)cc1-2 [Example 34, 10-(5-Fluoro-pyridin-2-yl)-3-methoxy-6-methyl-6,7-dihydro-4,6-diaza-dibenzo[a, c]cyclohepten-5-one]
0.1 to 1	COCn1cc2c(n1)C(=O)N(C)Cc1ccc(-c3cccnc3C)cc1-2 [Example 65, 2-Methoxymethyl-5-methyl-9-(2-methyl-pyridin-3-yl)-5,6-dihydro-2H-2,3,5-triaza-benzo[e]azulen-4-one]
0.1 to 1	Cc1ccc2c(n1)C(=O)N(C)Cc1ccc(-c3ccc(F)cn3)cc1-2 [Example 40, 10-(5-Fluoro-pyridin-2-yl)-3,6-dimethyl-6,7-dihydro-4,6-diaza-dibenzo[a, c]cyclohepten-5-one]
0.1 to 1	COc1ccc2c(n1)C(=O)N(C)Cc1ccc(-c3cccnc3C)cc1-2 [Example 36, 3-Methoxy-6-methyl-10-(2-methyl-pyridin-3-yl)-6,7-dihydro-4,6-diaza-dibenzo[a, c]cyclohepten-5-one]
1 to 10	CN1Cc2ccc(-c3ccc(F)cn3)cc2-c2ccc(F)nc2C1=O [Example 32, 3-Fluoro-10-(5-fluoro-pyridin-2-yl)-6-methyl-6,7-dihydro-4,6-diaza-dibenzo[a, c]cyclohepten-5-one]
1 to 10	CN1Cc2ccc(-c3ccc(F)nc3)cc2-c2ccc(F)nc2C1=O [Example 31, 3-Fluoro-10-(6-fluoro-pyridin-3-yl)-6-methyl-6,7-dihydro-4,6-diaza-dibenzo[a, c]cyclohepten-5-one]
0.1 to 1	COCn1cc2c(n1)C(=O)N(C)Cc1ccc(-c3ccc(F)nc3)cc1-2 [Example 66, 2-Methoxymethyl-5-methyl-9-(6-fluoro-pyridin-3-yl)-5,6-dihydro-2H-2,3,5-triaza-benzo[e]azulen-4-one]
1 to 10	Cc1ncccc1-c1ccc2c(c1)-c1ccc(F)nc1C(=O)N(C)C2 [Example 30, 3-Fluoro-6-methyl-10-(2-methyl-pyridin-3-yl)-6,7-dihydro-4,6-diaza-dibenzo[a, c]cyclohepten-5-one]
0.1 to 1	Cc1cnc2c(c1)-c1cc(-c3ccc(F)nc3)ccc1CN(C)C2=O [Example 44, 10-(6-Fluoro-pyridin-3-yl)-2,6-dimethyl-6,7-dihydro-4,6-diaza-dibenzo[a, c]cyclohepten-5-one]
1 to 10	Cc1ncccc1-c1ccc2c(c1)-c1cn(C)nc1C(=O)N(C)C2 [Example 68, 2,5-Dimethyl-9-(2-methyl-pyridin-3-yl)-5,6-dihydro-2H-2,3,5-triaza-benzo[e]azulen-4-one]
0.1 to 1	CN1Cc2ccc(-c3ccc(F)nc3)cc2-c2cccnc2C1=O [Example 27, 10-(6-Fluoro-pyridin-3-yl)-6-methyl-6,7-dihydro-4,6-diaza-dibenzo[a, c]cyclohepten-5-one]
0.1 to 1	CN1Cc2ccc(-c3ccc(F)cn3)cc2-c2cccnc2C1=O [Example 28, 10-(5-Fluoro-pyridin-2-yl)-6-methyl-6,7-dihydro-4,6-diaza-dibenzo[a, c]cyclohepten-5-one]
